Experimental data published in article PMC9669016, “First-in-human phase Ia study of the PI3Kα inhibitor CYH33 in patients with solid tumors” (Nature Communications, 2022).
pIC50: −log10 of the molar value.

Assays:
[1] = system: salmonella typhimurium; conditions: cited from earlier work
[2] = system: CHL; set-up: method as in Investigator's Brochure (IB) 12; conditions: ref Investigator's Brochure (IB) 12; cited from earlier work
[3] = system: EC074 esophageal cancer PDX; set-up: method as in Investigator's Brochure (IB) 12; conditions: 25 mg/kg oral for 21 days; ref Investigator's Brochure (IB) 12; cited from earlier work
[4] = set-up: method as in Investigator's Brochure (IB) 12; conditions: ref Investigator's Brochure (IB) 12, cited from earlier work
[5] = system: fasting blood glucose (FBG); assay: Pharmacodynamics: fasting blood glucose (FBG) change from baseline; type: in vivo, human; conditions: Cycle 1 Day 15 (C1D15), starting at 10 mg CYH33 and peaking at 60 mg
From the text: Since glucose metabolism is tightly regulated by PI3Kα[24], fasting blood glucose (FBG) levels were used as a PD marker.
This is a phase I clinical study (ClinicalTrials.gov identifier: NCT03544905), including a phase Ia study of oral CYH33 monotherapy in patients with advanced solid tumors, and a phase Ib study of oral CYH33 monotherapy focused on several specific tumors. Here we report the results of the phase Ia study conducted at Sun Yat-sen University Cancer Center. The phase Ia study included dose-escalation stage and dose-expansion stage. […]
Blood samples for PK evaluation were collected at: (1) during the single dose phase: on day 1 pre-dose and 0.5, 1, 2, 4, 8, 12, 24, 36, 48, and 72 h post-dose; (2) during the continuous dose phase: C1D1/Cycle 1 Day 28 pre-dose, and 0.5, 1, 2, 3, 4, 6, 8, 12, and 24 h post-dose; and C1D8/Day 15 pre-dose. Plasma concentrations of CYH33 and I27 were analyzed using a liquid chromatography-tandem mass spectrometry (LC/MS/MS) assay (Shimadzu Corporation, LC-30AD) with a lower limit of quantification (LLOQ) of 2.585 ng/mL and 1.0 ng/mL for CYH33 and I27, respectively. […]

[6] = set-up: method as in Investigator's Brochure (IB) 12; conditions: rats, without concentration dependency; ref Investigator's Brochure (IB) 12; cited from earlier work
[7] = system: CYP1A2; set-up: method as in Investigator's Brochure (IB) 12; conditions: up to 100 µM; ref Investigator's Brochure (IB) 12; cited from earlier work
[8] = system: EC063 esophageal cancer PDX; set-up: method as in Investigator's Brochure (IB) 12; conditions: 12.5 mg/kg oral for 21 days; ref Investigator's Brochure (IB) 12; cited from earlier work
[9] = system: EC104 esophageal cancer PDX; set-up: method as in Investigator's Brochure (IB) 12; conditions: 12.5 mg/kg oral for 21 days; ref Investigator's Brochure (IB) 12; cited from earlier work
[10] = system: pregnant rats; set-up: method as in Investigator's Brochure (IB) 12; conditions: ref Investigator's Brochure (IB) 12; cited from earlier work
[11] = system: PI3Kβ, PI3Kδ, and PI3Kγ; set-up: method as in PMID 33109399; conditions: read-out: IC50 range; cited from earlier work
[12] = system: Beagle dogs; set-up: method as in Investigator's Brochure (IB) 12; conditions: species wording unclear (Beagle dogs / rats); ref Investigator's Brochure (IB) 12; cited from earlier work
[13] = system: CYP2D6; set-up: method as in Investigator's Brochure (IB) 12; conditions: up to 100 µM; ref Investigator's Brochure (IB) 12; cited from earlier work
[14] = set-up: method as in Investigator's Brochure (IB) 12; conditions: dogs, ref Investigator's Brochure (IB) 12, cited from earlier work

For `COC(=O)Nc1cc(C(F)(F)F)c(-c2nc(N3CCOCC3)c3cc(CN4CCN(S(C)(=O)=O)CC4)cn3n2)cn1` [CYH33, methyl (5-(6-((4-(methylsulfonyl)piperazin-1-yl)methyl)−4-morpholinopyrrolo[2,1-f][1,2,4]triazin-2-yl)−4-(trifluoromethyl)pyridin-2-yl)carbamate], the “reverse mutation assay (Ames test) result” value [1] is given as “negative”, the “CHL chromosomal aberration assay result” value [2] is given as “negative” and the T/C ratio [3] is given as 36.78%. For the same compound, the “exposure in tissues relative to plasma” value ([4]; liver, adrenal gland, digestive tract, pancreas, kidney, spleen, ovaries) was “more than 4 times”, the “concentration of parent drug at 72 h after administration relative to peak concentration” value [4] was 0.5% and the “distribution into the red blood cells” value [4] was “basically not distributed”. The “exposure in brain tissue relative to plasma” value [4] was “approximately 20%”, the “exposure in tissues, female rats relative to male rats (higher)” value [4] was 7 - 18 fold and the FBG levels [5] was “dose-dependent increase in FBG levels”. The “plasma protein binding (PPB)” value [6] was 97.5%, the “inhibition of CYP1A2” value [7] was “did not inhibit” and the T/C ratio [8] was “approximately 30%”. The T/C ratio [9] was “approximately 30%”, the “no-observed-adverse-effect level (NOAEL) for embryo-fetal development” value [10] was 0.10 mg/kg and the pIC50 [11] was 6.21 to 7.37. For the same compound, the “arrhythmia, ECG, blood pressure and body temperature parameters” value [12] was “no drug-related arrhythmia or changes”, the “inhibition of CYP2D6” value [13] was “did not inhibit” and the absolute bioavailability ([14]; 0.05 mg/kg) was 70.9%. The “Vss, steady-state volume of distribution” value [14] was 1.86 L/kg, the “accumulation after continuous administration for 7 days” value [14] was “not significant” and the elimination half-life [14] was 5.1 h. The “plasma clearance CL” value [14] was 0.405 L/h/kg.
